Results published in US7605175B2, “Inhibitors of cyclin-dependent kinases, compositions and uses related thereto” (GPC Biotech AG, priority 2001, dated 2009).
pIC50: −log10 of the molar value.

How the values were obtained:
[1] = biological target: T1, Cdc2/cyclin B (Homo sapiens, UniProt P06493); experiment: Biochemical kinase assay Cdc2/cyclin B; settings: Table 6
T1 construct: purchased
In short: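 Radiometric TCA-precipitation assay measuring [γ-32P]ATP incorporation into Histone H1 (20 μg); 50 μM ATP, 10% DMSO, Tris pH 7.5 with MgCl2 and DTT. Compounds at 1 nM to 10 μM; reaction 20 min at 30 °C, stopped with EDTA/ATP. Activity relative to DMSO control after subtracting 50 mM EDTA background.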

[2] = Cytotoxicity in PBMCs (MTS assay); assay type: cell-based, human; settings: human
Experimental: (§1) The activity of the certain compounds of the invention was evaluated in peripheral blood mononuclear cells (PBMCs) infected with the low passage, clinical isolate HIV-1 ROJO to generate a measure of the efficacy of these compounds in acutely infected cells. The use of these normal human cells allows an estimate of the therapeutic index of these compounds to be made. Fresh PBMCs from two donors were pooled and stimulated with PHA-P for 48-72 hours. The cells were then cultured in the presence of IL-2 to maintain the cell division initiated by the mitogenic signal. The virus was added at a multiplicity of infection of 0.1. The cells were cultured for 7 days post infection prior to the evaluation of efficacy. Viral replication was measured by the level of reverse transcriptase activity in the supernatant and cytotoxicity was measured with the MTS assay.

[3] = biological target: T2, Cdk4/cyclin D1 (Homo sapiens, UniProt P11802); experiment: Biochemical kinase assay Cdk4/cyclin D1; settings: Table 6
T2 construct: made in house; host or cells: Sf9 insect cells
In short: (§2)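 Sf9-expressed Cdk/cyclin heterodimers phosphorylate GST-Rb (residues 379–928, 40 μg) with 50 μM ATP plus [γ-33P]ATP, pH 7.5, 10% DMSO, 15 min at 30 °C. Compounds 1 nM–10 μM. 33P captured on glutathione-sepharose and scintillation-counted; activity relative to DMSO control after EDTA-background subtraction.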

[4] = system: HIV-1 ROJO; experiment: Antiviral activity in PBMCs infected with HIV-1 ROJO (reverse transcriptase); assay type: cell-based; settings: for pIC50: Human immunodeficiency virus 1, PBMC, 168 h, read-out: IC50: 50% inhibition of virus replication measured by reverse transcriptase levels in the supernatant, HIV-1 ROJO, 7 days post infection
Experimental: as §1

[5] = system: HCT-116 cells; experiment: Calcein AM viability assay, HCT-116; assay type: cell-based; settings: Homo sapiens
Experimental: The potency of Cdk inhibitors, as measured by loss of cellular viability, was determined with the Calcein AM assay (Molecular Probes). Calcein AM is a substrate of intracellular esterases, which is cleaved only in viable cells to generate a fluorescent product that can be quantified with a fluorescent plate reader. The fluorescent signal is proportional to the number of viable cells, and thus loss of signal in response to the exposure of cells to Cdk inhibitors correlates with a loss of viability. This assay can distinguish cell cycle arrest, in which cells may still by viable, from loss of viability and is thus well suited for the evaluation of Cdk inhibitors. A compound that is a potent cytotoxic, may cause significant loss of cell viability in such assay.
Cellular IC50's were determined in the human colorectal carcinoma cell line, HCT-116, and the normal human fibroblast, IMR90. Protein adjusted IC50's were also determined in HCT-116.
HCT-116 or IMR90 cells were recovered from sub-confluent plates by trypsinization and 1,000 or 4,000 cells, respectively, were plated in 24-well dishes and incubated overnight at 37° C., 5% CO2. HCT-116 cells were cultured in RPMI-1640, 10% FCS, and IMR90 cells were cultured in Minimum Essential Medium-alpha, 10% FCS. After overnight incubation to allow adherence, the media was aspirated from each well and replaced with media containing a test compound at a concentration from 0 to 250 nM, spanning a total of 7 doses. The plates were returned to the incubator and cultured for an additional 72 hours (3 days). […] After 72-hours incubation with the test compound, the cells were washed twice with 1×PBS, taking special care to remove all residual buffer.
A 5 μM Calcein AM solution was prepared by dissolving a […] aliquot of Calcein (Molecular Probes catalog # C3100) in 50 μl DMSO. After the Calcein had completely dissolved (10 minutes at room temperature), it was diluted into 10 ml PBS. Calcein/PBS (0.5 ml) was added to each well. The plates were incubated for 75 minutes at 37° C. (protected from light) and the fluorescent signal was read on a fluorescent plate reader (excitation 485/20 and emission 530/25).

[6] = biological target: T3, Cdk2/cyclin E (Homo sapiens, UniProt P24941); experiment: Biochemical kinase assay Cdk2/cyclin E; settings: Table 6
T3 construct: made in house; host or cells: Sf9 insect cells
In short: as §2

[7] = system: arrested IMR90 cells; experiment: Arrested cell assay, arrested IMR90 normal cells; assay type: cell-based; settings: Homo sapiens, IMR-90; serum-starved arrested cells, 72 hours; read-out: Arrested cell assay IMR90 IC50
Experimental: (§3) Cyclin-dependent kinase (Cdk) activity is required to promote the progression of cells through distinct phases of the cell division cycle. The proliferation of normal, non-transformed, cells in culture requires the presence of growth factors, the removal of which, through serum deprivation, leads to a loss of Cdk activity and consequent exit from the cell cycle as cells enter the quiescent phase, G0.
IMR90 cells were plated in triplicate for each compound concentration to be tested in MEM-A media containing 10% fetal calf serum at a density of either 2,000 or 20,000 cells per well in 24-well dishes and incubated overnight at 37° C., 5% CO2. The media was removed from the 20,000 cell-per-well dish, cells were washed once with serum-free media, and serum-free media was placed on cells. The plates containing cells both in the presence and absence of serum were incubated for 3 additional days.
(§4) The cells are incubated in the presence of the compounds for 72 hours (3 days) at 37° C. […] Cycling and arrested HCT-116 cells as well as cycling IMR90 cells were exposed to a panel of 6 doses ranging from 5 to 250 nM. For arrested normal cells, the range of doses was increased to 50 nM to 25 μM, to compensate for the expected decrease in activity.
(§5) The effect of 72 hours of compound exposure on cellular viability was assessed in the Calcein AM assay. Calcein AM is a fluorescent substrate of intracellular esterases that are only active in viable cells. Cleavage of the substrate thus provides a measure of viability, which is proportional to cell number.
(§6) A Calcein AM stock solution was prepared by dissolving a 50 μg aliquot (Molecular Probes catalogue # C3100) in 50 μl DMSO. The tube was incubated at room temperature for approximately 10 minutes to ensure that the Calcein had dissolved completely. The calcein was diluted into 10 ml PBS to prepare the final solution, which was protected from light.
(§7) The media was aspirated off the cells, which were then washed twice with 1 ml PBS to remove the PBS completely from cells by aspiration. 0.5 ml of the Calcein/PBS solution was transferred by pipette into each well. The plates were incubated at 37° C. for 75 minutes (protected from light) and read on a fluorescent plate reader (excitation 485/20 and emission 530/25).

[8] = system: arrested HCT-116 cells; experiment: Arrested cell assay, arrested HCT-116 tumor cells; assay type: cell-based; settings: Homo sapiens, serum-starved arrested cells, 72 hours, read-out: Arrested cell assay HCT IC50
Experimental: as §3
HCT-116 cells were plated in triplicate for each compound concentration to be tested in RPMI 1640 media containing 10% fetal calf serum at a density of either 200 or 2,000 cells per well in 24 well dishes, and incubated overnight at 37° C., 5% CO2. The media from the plate containing 2,000 cells per well was removed, cells were washed once with serum free media and 1 ml of serum free media was placed on cells. The plates containing cells both in the presence and absence of serum were incubated for 6 additional days.
as §4, §5, §6, §7

[9] = system: HCT-116 cells; experiment: BrdU incorporation assay; assay type: cell-based; settings: Homo sapiens, read-out: Brd U, concentration that inhibits BrdU incorporation by 50%
Experimental: This method measured the percentage of cells that incorporated the nucleotide analog, BrdU, into newly synthesized DNA as cells progressed through the S phase of the cell cycle. The inhibition of BrdU incorporation was used as a measure of a Cdk inhibitor's effect on S phase progression and DNA replication.
3 sets of HCT-116 cells (100,000 cells/set) were plated in T25 flasks and incubated with a test compound as above. Analysis was done at 24, 48, and 72 hours. BrdU was added to each T-25 flask from a stock of 10 mg/ml to a final concentration of 10 μM and the cells were incubated for an additional 16-18 hours at 37° C. The cells were then prepared for flow cytometric analysis according to manufacturer's protocol (BrdU Flow kit, BD-Pharmingen catalogue #2354KK) as follows:
Cells were harvested (adherent and floating) from the T25 flasks directly into Falcon 12×75 flow cytometric tubes as above followed by fixation and permeabilization with the addition of 100 μl of Cytofix/Cytoperm buffer (30 minutes, room temperature). The cells were then washed with 1 ml of Perm Wash buffer and the cell pellets were resuspended in 100 μl Cytoperm Plus buffer and incubated on ice for 10 minutes. The cells were then washed again with 1 ml of Perm Wash buffer and the fixation was repeated in 100 μl of Cytofix/Cyto Perm buffer for 10 minutes at room temperature. The cells were then washed with 1 ml of Perm Wash buffer. The cells were next treated for one hour at 37° C. with 100 μl DNase to expose incorporated BrdU followed by another wash step with 1 ml of Perm Wash buffer. […] Cells were protected from light and incubated at room temperature for 20-30 minutes. Following the incubation, the cells were washed with 1 ml of Perm Wash buffer, resuspended in 300 μl of 2% FBS in PBS, and analyzed on the flow cytometer. Results are presented in Table 2 as the concentration of compound (μM) that inhibits of BrdU incorporation by 50%.

[10] = HCT-116, non-protein adjusted, Table 6, read-out: HCT-116 viability IC50
[11] = HCT-116, 72 h, Calcein AM, 72 hours, read-out: HCT-116 IC50 Viability
[12] = HCT-116, plus 1 mg/ml alpha acidic glycoprotein and 45 mg/ml human serum albumin, read-out: HCT-116 IC50 Protein adjusted

T1 sequence (P06493 whole entry, species assumed): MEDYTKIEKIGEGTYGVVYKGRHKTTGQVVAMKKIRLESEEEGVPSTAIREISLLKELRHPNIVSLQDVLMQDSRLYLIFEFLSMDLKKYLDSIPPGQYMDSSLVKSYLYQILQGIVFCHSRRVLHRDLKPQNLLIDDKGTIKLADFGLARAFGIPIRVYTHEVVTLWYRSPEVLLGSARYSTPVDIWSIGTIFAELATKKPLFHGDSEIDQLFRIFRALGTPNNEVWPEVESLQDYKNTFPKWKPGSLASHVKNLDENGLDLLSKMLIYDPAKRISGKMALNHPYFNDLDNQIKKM
T1 sequence (P14635 whole entry partner, species assumed): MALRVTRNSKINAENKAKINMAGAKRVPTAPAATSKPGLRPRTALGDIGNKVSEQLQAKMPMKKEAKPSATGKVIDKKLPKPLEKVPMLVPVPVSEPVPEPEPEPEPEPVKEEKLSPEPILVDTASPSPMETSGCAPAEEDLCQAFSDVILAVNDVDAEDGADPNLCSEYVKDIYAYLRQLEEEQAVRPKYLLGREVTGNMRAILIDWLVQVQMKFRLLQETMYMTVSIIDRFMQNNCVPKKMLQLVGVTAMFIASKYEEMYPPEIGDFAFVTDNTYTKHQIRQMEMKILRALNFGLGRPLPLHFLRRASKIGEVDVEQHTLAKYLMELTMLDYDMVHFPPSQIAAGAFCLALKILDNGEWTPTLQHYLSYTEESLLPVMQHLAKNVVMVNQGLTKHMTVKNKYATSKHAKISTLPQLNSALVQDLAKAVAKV
T2 sequence (P11802 whole entry, species assumed): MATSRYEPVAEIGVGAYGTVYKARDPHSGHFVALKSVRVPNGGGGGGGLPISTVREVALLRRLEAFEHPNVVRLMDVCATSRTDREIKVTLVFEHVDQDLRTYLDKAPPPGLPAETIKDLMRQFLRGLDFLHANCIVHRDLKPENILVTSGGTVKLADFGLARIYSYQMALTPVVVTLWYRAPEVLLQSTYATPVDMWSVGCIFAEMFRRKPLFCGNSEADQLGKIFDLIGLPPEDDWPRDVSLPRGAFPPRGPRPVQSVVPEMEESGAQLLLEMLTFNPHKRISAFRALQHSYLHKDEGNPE
T2 sequence (P24385 whole entry partner, species assumed): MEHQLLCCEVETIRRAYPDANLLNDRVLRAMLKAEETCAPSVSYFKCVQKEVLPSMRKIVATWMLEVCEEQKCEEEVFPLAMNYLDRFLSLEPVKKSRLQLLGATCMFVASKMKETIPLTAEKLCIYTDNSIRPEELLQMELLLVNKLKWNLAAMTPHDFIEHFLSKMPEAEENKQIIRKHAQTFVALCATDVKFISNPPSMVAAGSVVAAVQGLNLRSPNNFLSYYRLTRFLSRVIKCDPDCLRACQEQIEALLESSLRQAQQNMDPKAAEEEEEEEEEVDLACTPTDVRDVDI

| Structure (SMILES) | pIC50 [1] | CC50 at 7 days [2] | pIC50 [3] | TI: TC50/IC50 [4] | pIC50 [4] | pIC50 [5, 10] | pIC50 [6] | pIC50 [7] | pIC50 [8] | pIC50 [5, 11] | pIC50 ([9]; HCT-116, 24 h) | pIC50 ([9]; HCT-116, 48 h) | pIC50 [5, 12] |
| --- | --- | --- | --- | --- | --- | --- | --- | --- | --- | --- | --- | --- | --- |
| CC(C)c1nn(-c2c(Cl)cc(Cl)cc2Cl)c2nc(Cc3ccc(OCC(C)(C)O)cc3)[nH]c(=O)c12 [Compound A64] | > 7.00 | < 100 nM | > 6.00 | >10 | > 8.00 | > 7.00 | > 7.00 | – | – | – | – | – | – |
| CC(C)N1CCN(Cc2cc(-c3[nH]nc4c3C(=O)c3c(NC(=O)NN5CCOCC5)cccc3-4)ccc2O)CC1 [K] | – | – | – | – | – | – | – | < 6.00 | > 8.00 | > 7.00 | > 7.00 | > 7.00 | – |
| O=C(Nc1cccc2c1C(=O)c1c-2n[nH]c1-c1ccc(OCCN(CCO)CCO)cc1)NN1CCOCC1 [H] | – | – | – | – | – | – | – | < 6.00 | > 7.00 | – | – | > 6.00 | > 6.00 |
| CN1CCN(NC(=O)Nc2cccc3c2C(=O)c2c-3n[nH]c2-c2ccc(OCCN3CCC[C@H]3CO)cc2)CC1 [Compound M] | – | – | – | – | – | – | – | < 6.00 | > 7.00 | > 7.00 | – | > 7.00 | – |
| CCCN(CCOc1ccc(-c2[nH]nc3c2C(=O)c2c(NC(=O)NN4CCOCC4)cccc2-3)cc1)CC1CC1 [G] | – | – | – | – | – | – | – | < 7.00 | > 7.00 | > 7.00 | > 8.00 | – | – |
| CC(C)c1nn(-c2c(Cl)cc(Cl)cc2Cl)c2nc(Cc3ccc(OCCO)cc3)[nH]c(=O)c12 [Compound A61] | > 7.00 | < 100 nM | > 6.00 | >10 | > 8.00 | – | > 7.00 | – | – | – | – | – | – |
| CC(C)c1nn(-c2c(Cl)cccc2Cl)c2nc(Cc3ccc(OCCN4CCOCC4)c(O)c3)[nH]c(=O)c12 [Compound A32] | > 6.00 | < 100 nM | > 7.00 | >10 | > 8.00 | > 7.00 | > 7.00 | – | – | – | – | – | – |
| CN1CCN(NC(=O)Nc2cccc3c2C(=O)c2c-3n[nH]c2-c2ccc(OCCN3CCOCC3)cc2)CC1 [Q] | – | – | – | – | – | – | – | < 7.00 | > 7.00 | – | – | > 7.00 | – |
| CC(C)c1nn(-c2c(Cl)cccc2Cl)c2nc(Cc3ccc(CN4CCCC4)c(O)c3)[nH]c(=O)c12.Cl [Compound C3] | – | < 100 nM | – | >10 | > 8.00 | > 7.00 | > 7.00 | – | – | – | – | – | – |
| CC(C)c1nn(-c2c(Cl)cc(Cl)cc2Cl)c2nc(Cc3ccc(CNC(CO)CO)n3C)[nH]c(=O)c12.Cl [Compound C4] | – | < 100 nM | – | >1 | > 7.00 | > 7.00 | > 8.00 | – | – | – | – | – | – |
| CN1CCN(NC(=O)Nc2cccc3c2C(=O)c2c-3n[nH]c2-c2ccc(OCCN3CC[C@H](O)C3)cc2)CC1 [O] | – | – | – | – | – | – | – | < 7.00 | > 7.00 | – | > 7.00 | – | > 6.00 |
| O=C(Nc1cccc2c1C(=O)c1c-2n[nH]c1-c1ccc(OCCN2CCCC2)cc1)NN1CCOCC1 [Compound I] | – | – | – | – | – | – | – | < 6.00 | > 7.00 | > 7.00 | > 8.00 | – | – |
